According to ChEMBL document CHEMBL3886705, “Cyanomethylpyrazole carboxamides as janus kinase inhibitors” (2016):
Values joined by “and” are separate entries in the source; they are usually repeats but may differ in a detail not shown here. Identical values can stand only once.

What was measured:
[1] = molecular target: Tyrosine-protein kinase JAK2 (Homo sapiens, UniProt O60674)
[2] = molecular target: Tyrosine-protein kinase JAK1 (Homo sapiens, UniProt P23458); test: Subsequent reagent additions employed an Agilent Bravo.
Chain of Tyrosine-protein kinase JAK1 (P23458 whole entry): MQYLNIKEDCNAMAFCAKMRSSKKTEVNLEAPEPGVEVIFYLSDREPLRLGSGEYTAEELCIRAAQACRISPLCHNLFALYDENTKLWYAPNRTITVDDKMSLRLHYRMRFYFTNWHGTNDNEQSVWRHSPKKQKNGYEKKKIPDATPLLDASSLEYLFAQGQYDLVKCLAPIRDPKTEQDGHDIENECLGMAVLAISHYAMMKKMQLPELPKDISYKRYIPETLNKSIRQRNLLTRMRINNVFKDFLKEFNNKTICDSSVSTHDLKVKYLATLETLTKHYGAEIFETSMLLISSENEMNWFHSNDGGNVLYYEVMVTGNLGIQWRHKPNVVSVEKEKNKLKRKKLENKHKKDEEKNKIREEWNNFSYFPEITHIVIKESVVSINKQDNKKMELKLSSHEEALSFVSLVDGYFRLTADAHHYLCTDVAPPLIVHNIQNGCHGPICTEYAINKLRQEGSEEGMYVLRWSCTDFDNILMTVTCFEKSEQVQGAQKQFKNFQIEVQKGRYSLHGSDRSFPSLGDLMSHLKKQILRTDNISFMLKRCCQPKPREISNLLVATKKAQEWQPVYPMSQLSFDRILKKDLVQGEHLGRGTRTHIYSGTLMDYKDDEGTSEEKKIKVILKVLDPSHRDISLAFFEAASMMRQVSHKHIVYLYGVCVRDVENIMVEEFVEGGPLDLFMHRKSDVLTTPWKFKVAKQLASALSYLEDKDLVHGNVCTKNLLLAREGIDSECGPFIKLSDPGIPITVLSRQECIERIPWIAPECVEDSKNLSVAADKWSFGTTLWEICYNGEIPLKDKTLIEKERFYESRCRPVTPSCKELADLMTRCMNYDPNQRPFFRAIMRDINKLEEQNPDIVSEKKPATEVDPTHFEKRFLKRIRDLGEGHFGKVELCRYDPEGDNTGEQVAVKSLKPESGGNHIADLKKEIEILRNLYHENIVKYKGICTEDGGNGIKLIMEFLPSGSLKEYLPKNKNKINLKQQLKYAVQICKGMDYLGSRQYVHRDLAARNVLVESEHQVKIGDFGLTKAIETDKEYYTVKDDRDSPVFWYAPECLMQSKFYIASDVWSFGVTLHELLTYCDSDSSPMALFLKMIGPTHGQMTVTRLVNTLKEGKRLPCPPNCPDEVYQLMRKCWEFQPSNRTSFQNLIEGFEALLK

Chain of Tyrosine-protein kinase JAK2 (O60674 whole entry): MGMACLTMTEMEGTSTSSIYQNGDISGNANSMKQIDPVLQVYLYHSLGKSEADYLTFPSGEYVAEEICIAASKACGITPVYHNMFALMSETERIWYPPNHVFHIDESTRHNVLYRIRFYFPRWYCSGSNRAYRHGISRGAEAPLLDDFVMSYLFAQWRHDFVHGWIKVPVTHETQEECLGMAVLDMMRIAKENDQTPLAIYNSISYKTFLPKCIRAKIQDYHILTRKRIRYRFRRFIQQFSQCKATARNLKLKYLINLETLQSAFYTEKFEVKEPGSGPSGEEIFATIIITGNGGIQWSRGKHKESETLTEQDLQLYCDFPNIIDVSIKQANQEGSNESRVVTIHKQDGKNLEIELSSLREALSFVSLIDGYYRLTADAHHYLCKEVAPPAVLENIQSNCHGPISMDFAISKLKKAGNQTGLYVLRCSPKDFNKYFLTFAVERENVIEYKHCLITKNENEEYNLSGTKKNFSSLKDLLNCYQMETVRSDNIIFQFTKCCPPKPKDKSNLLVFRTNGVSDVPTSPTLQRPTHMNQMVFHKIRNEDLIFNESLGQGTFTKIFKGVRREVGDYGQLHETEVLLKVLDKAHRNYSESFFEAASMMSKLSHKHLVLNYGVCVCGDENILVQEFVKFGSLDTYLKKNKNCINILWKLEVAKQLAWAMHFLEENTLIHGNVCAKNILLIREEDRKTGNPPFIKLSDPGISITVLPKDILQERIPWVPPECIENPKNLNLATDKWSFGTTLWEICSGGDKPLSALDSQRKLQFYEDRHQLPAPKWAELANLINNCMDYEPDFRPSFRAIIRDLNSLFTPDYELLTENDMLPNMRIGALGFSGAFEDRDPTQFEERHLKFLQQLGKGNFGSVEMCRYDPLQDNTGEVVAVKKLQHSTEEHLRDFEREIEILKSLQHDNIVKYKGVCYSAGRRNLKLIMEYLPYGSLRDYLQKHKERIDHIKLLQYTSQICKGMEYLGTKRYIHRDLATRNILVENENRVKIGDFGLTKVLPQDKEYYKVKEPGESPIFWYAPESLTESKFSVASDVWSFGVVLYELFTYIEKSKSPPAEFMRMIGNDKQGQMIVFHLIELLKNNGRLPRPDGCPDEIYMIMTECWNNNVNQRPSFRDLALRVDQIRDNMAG

| IC50 [1] | IC50 [2] [nM] | SMILES |
| --- | --- | --- |
| > 1500 nM and 161 nM |  | N#CCC1(n2cc(C(N)=O)c(Nc3ccnc(F)c3)n2)CCC(N)CC1 (stereo not given) |
| 33 nM | 1 | CC(C)(C)OC(=O)N1CCC(CC#N)(n2cc(C(N)=O)c(Nc3cc(Cl)nc(Cl)c3)n2)CC1 |
| 2 nM | 0.7 | CN(C)C(=O)c1ccc(Nc2nn(C3(CC#N)CCN(C(=O)OC(C)(C)C)CC3)cc2C(N)=O)cc1 |
